Earlier results as cited in patent US12285031B2, “Beverage with collagen and additional additives” (WELLDRINKS LTD, priority 2015, dated 2025).
Square brackets hold non-standard residues; d marks the D form. Peptide text beside a SMILES is read from it. Hyp = O=C(O)[C@@H]1C[C@@H](O)CN1

How the values were obtained:
dermal fibroblasts = settings: in vitro
[1] = adult humans

SMILES: O=C(O)CNC(=O)[C@@H]1C[C@@H](O)CN1 [Hyp-Gly, hydroxyprolyl-glycine] (H-[Hyp]-Gly-OH)
- cell proliferation of dermal fibroblasts (dermal fibroblasts): enhance cell proliferation

SMILES: [Mn+2] [Mn, Manganese]
- fraction of ingested Mn absorbed [1]: 3-5%

SMILES: O=C(O)[C@@H]1C[C@@H](O)CN1C(=O)[C@@H]1CCCN1 [Pro-Hyp, prolyl-hydroxyproline] (H-Pro-[Hyp]-OH)
- cell proliferation of dermal fibroblasts (dermal fibroblasts): enhance cell proliferation
- production of hyaluronic acid by dermal fibroblasts (dermal fibroblasts): enhances
